Data from patent publication US20070037887A1, “Blockade of mtor to prevent a hormonal adaptive response” (University of Virginia Patent Foundation, priority 2003, published 2007).

Legend:
LTED cells = assay: [3H] thymidine incorporation into DNA, LTED cells; format: cell-based, human; conditions: FTS 75 μM, 18 hours
Experimental: FIGS. 5A & 5B represent the effect of FTS on DNA synthesis in MCF-7 (FIG. 5A) and LTED (FIG. 5B) cells. One hundred thousand cells were plated into each well of 24-well plates. Two days later, the cells were re-fed with IMEM containing 5% DCC-FBS. After another two days, cells were treated in quadruplicate with the compounds indicated for 18 hours. [^3H] thymidine (1 μCi/well) was added during the last 2 h of incubation. [^3H] thymidine incorporated into DNA was normalized by protein content.
The inhibitory effect of FTS on cell growth may be the result of inhibition of cellular proliferation, induction of apoptosis, or both. To determine the mechanism by which FTS inhibits cell growth, FTS's effect on DNA synthesis and apoptosis was investigated. […] Estradiol (10^−10 M) increased [^3H] thymidine incorporation by 2.6 fold compared to the control level in MCF-7 cells.

[1] = system: ERK1/2 MAP kinase, Akt, p70 S6 kinase, PHAS-I phosphorylation in MCF-7 cells; assay: Western analysis of serum-stimulated kinase phosphorylation, MCF-7 cells; format: cell-based, human; conditions: FTS 24 h
Experimental: FIGS. 7A-7D represent data showing the effect of FTS on serum-stimulated activation of MAP kinase, PI3 kinase, and mTOR. Subconfluent MCF-7 and LTED cells grown in 60 mm dishes were treated with FTS in their culture media for 24 h. Cells were then harvested and cell lysate prepared. Phosphorylation of ERK1/2 MAP kinase (FIG. 7A), Akt at Ser^473 (FIG. 7B), p70 S6 kinase at Thr^389 (FIG. 7C), and PHAS-I at Ser^65 (FIG. 7D) was detected by Western analysis using specific antibodies and quantitated by densitometry scanning.
The levels of phosphorylated ERK1/2 MAPK, Akt (Ser^473), p70S6K (Thr^389) and PHAS-1 (Ser^65) were consistently elevated in LTED cells compared to those in wild type MCF-7 cells as indicated by Western blot analysis using specific antibodies against phosphorylated ERK 1/2 (FIG. 7A), Akt (FIG. 7B), p70S6 kinase (FIG. 7C) and PHAS-1 (FIG. 7D). […] (FIGS. 7C & 7D).

mTOR-mLST8 = assay: Coimmunoprecipitation of mLST8 with mTOR, compound added to cell extracts; format: binding; conditions: only at the highest concentrations investigated
Experimental: FIGS. 13A & 13B represent data showing FTS promotes raptor dissociation and inhibits mTOR activity in cell extracts. 293T cells were transfected with pcDNA3 alone (Vec.) or with a combination of pcDNA3AU1-mTOR, pcDNA33HA-Raptor, and pcDNA33HA-mLST8. Extracts of the cells were incubated with increasing concentrations of FTS before AU1-mTOR was immunoprecipated. Samples of the immune complexes were incubated with [γ-^32P]ATP and recombinant [His^6]PHAS-I, then subjected to SDS-PAGE and transferred to an immobilon membrane. After obtaining a phosphorimage of the membrane to detect ^32P-PHAS-I, the membrane was immunoblotted with PThr^36/45 antibodies. […]
FIGS. 14A & 14B represent data showing the relative effects of increasing concentrations of FTS and GTS on mTOR activity and the association of mTOR and raptor. Samples of extracts from 293T cells overexpressing AU1-mTOR, HA-raptor, and HA-mLST8 were incubated for 1 h with increasing concentrations of FTS (●, ▴, ▪) or GTS (∘, Δ, □) before immunoprecipitations were conducted with anti-AU1 antibodies. mTOR kinase activity (●, ∘) was determined by measuring ^32P incorporation into [His^6]PHAS-I in immune complex kinases assays performed with [γ-^32P]ATP (see FIG. 14A). The relative amounts of HA-raptor (▴, Δ) and HA-mLST8 (▪, □) that coimmunoprecipitated with AU1-mTOR were determined after immunoblotting with anti-HA antibodies (see FIG. 14B). […]

## CC(C)=CCC/C(C)=C/CC/C(C)=C/CSc1ccccc1C(=O)O [FTS, farnesylthiosalicylic acid]
LTED cells
  [3H] thymidine incorporated into DNA: significantly reduced
[1]
  fall of phosphorylated ERK1/2 and 4E BP 1: approximately 50%
  p70 S 6 kinase and phospho-AKT: inconsistent decrements
mTOR-mLST8
  amounts of transfected and endogenous mLST8 that coimmunoprecipitated with mTOR: modestly decreased
